Common to all, as to test: NCI tumour cell line growth inhibition, 48 h
For assay [1], the system named is HT29 colon.
Assay [2] concerns HOP-92 NSCLC.
Assay [3] relates to M14 melanoma.
The subject of assay [4] is SF-268 CNS.
The subject of assay [5] is NCI-H460 lung.
In assay [6] the test system is LOX IMVI melanoma.
For assay [7], the system named is PC-3 prostate.
Assay [8] deals with SW-620 colon.

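Method: 48-hour compound exposure of cells in 96-well plates, five concentrations, linear interpolation of endpoints. GI50 = concentration required for 50% inhibition of growth. TGI: total growth inhibition.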 Bounds are passed on as bounds.

Turning to `CCOc1ccc(-c2cnnn2-c2nonc2-n2cccc2)cc1`, the GI50 in assay [1] was 0.22 µM; in assay [2] it was 0.401 µM; in assay [3] it was 0.122 µM; in assay [4], 0.736 µM; in assay [5] it was 0.345 µM; in assay [6], 0.46 µM. In addition, the GI50 in assay [7] was 0.365 µM; in assay [8], 0.111 µM. Further, the TGI in assay [1] was 4.54 µM; in assay [2], 9.27 µM; in assay [3], 0.365 µM; in assay [4], more than 100 µM; in assay [5] it was more than 33.4 µM; in assay [6], more than 100 µM. The TGI in assay [7] and in assay [8] was more than 100 µM throughout.
For the molecule `C#CCN(Cc1nc2cc(C(F)(F)F)ccc2nc1-c1ccccc1)c1ccc(OC(F)(F)F)cc1`, the GI50 was 40.3 µM in assay [1]; 18.5 µM in assay [2]; 50.3 µM in assay [3]; 47.5 µM in assay [4]; 38 µM in assay [5]; 37 µM in assay [6]. The GI50 was 44.4 µM in assay [7] and 40.9 µM in assay [8]. For the same molecule, the TGI is more than 100 µM in assay [1]; 77.3 µM in assay [2]; more than 100 µM in assay [3]; more than 100 µM in assay [4]; more than 100 µM in assay [5]; 96.1 µM in assay [6]. Further, the TGI in assay [7] and in assay [8] was more than 100 µM throughout.
As for `Cc1nc(-c2ccccc2)c(Cc2ccccc2O)c(=O)[nH]1`, the TGI in assay [1], in assay [2], in assay [3], in assay [4], in assay [5] and in assay [6] was more than 100 µM throughout. The TGI in assay [7] and in assay [8] was more than 100 µM in each case.
Consider `N#Cc1cccc(OCc2nc(N)nc(N)c2-c2ccc(Cl)c(Cl)c2)c1`, for which the GI50 in assay [1] was 0.797 µM; in assay [2] it was 1.82 µM; in assay [3] it was 0.639 µM; in assay [4], 3.05 µM; in assay [5], 0.435 µM; in assay [6] it was 0.575 µM. The GI50 in assay [7] is 0.604 µM; in assay [8], 0.484 µM. Besides, the TGI in assay [1] is more than 100 µM; in assay [2], 9.06 µM; in assay [3], more than 100 µM; in assay [4], more than 100 µM; in assay [5] it was more than 100 µM; in assay [6], more than 100 µM. For the same molecule, the TGI in assay [7] and in assay [8] was more than 100 µM in each case.
For `CN(CCCCCl)P(=O)(OCc1ccc([N+](=O)[O-])o1)OCC1OC(n2ccc(N)nc2=O)C(F)(F)C1O` (stereo not given), the GI50 was 29.7 µM in assay [1]; 0.155 µM in assay [2]; 0.0537 µM in assay [3]; 0.257 µM in assay [4]; 0.3 µM in assay [5]; 0.754 µM in assay [6]. Besides, the GI50 in assay [7] was 1.82 µM; in assay [8], more than 62 µM. In addition, the TGI was more than 100 µM in assay [1]; 0.83 µM in assay [2]; 0.269 µM in assay [3]; more than 40.6 µM in assay [6]; 99.3 µM in assay [7]; more than 100 µM in assay [8].
In the case of `Clc1ccc(/C=C/c2cc(N3CCOCC3)c3cc(Cl)c(Cl)cc3n2)cc1`, the GI50 in assay [1], in assay [2], in assay [3], in assay [4], in assay [5] and in assay [6] was more than 100 µM each time. The GI50 was 1.61 µM in assay [7] and more than 100 µM in assay [8]. The TGI in assay [1], in assay [2], in assay [3], in assay [4], in assay [5] and in assay [6] was more than 100 µM each time. Besides, the TGI in assay [7] and in assay [8] was more than 100 µM each time.
For `COc1cc(-n2cc(-c3ccc(F)cc3)nc2SCc2ccccc2)cc(OC)c1OC`, the GI50 in assay [1] is 13.4 µM; in assay [2] it was 1.48 µM; in assay [3], more than 100 µM; in assay [4] it was more than 100 µM; in assay [5] it was 77.2 µM; in assay [6], more than 100 µM. Also, the GI50 is 9.48 µM in assay [7] and more than 100 µM in assay [8]. Also, the TGI in assay [1] is more than 100 µM; in assay [2], 37 µM; in assay [3], more than 100 µM; in assay [4], more than 100 µM; in assay [5], more than 100 µM; in assay [6] it was more than 100 µM. The TGI in assay [7] and in assay [8] was more than 100 µM each time.
For `Cc1ccc2c(c1)c1nc3cc(C)c(C)cc3nc1n2CCN(C)C`, the GI50 is 1.23 µM in assay [1]; 1.09 µM in assay [2]; 1.78 µM in assay [3]; 2.51 µM in assay [4]; 2.69 µM in assay [5]; 1.45 µM in assay [6]. The GI50 in assay [7] was 2.32 µM; in assay [8], 1.13 µM. Besides, the TGI turned out to be 6.54 µM in assay [1]; 4.42 µM in assay [2]; 3.92 µM in assay [3]; 7.65 µM in assay [4]; 9.25 µM in assay [5]; 4.45 µM in assay [6]. The TGI in assay [7] is 6.82 µM; in assay [8] it was 5.46 µM.
Turning to `N/C(=C\C(=O)n1nc(-c2ccccc2)cc1N)c1ccccc1`, the GI50 in assay [1] was 3.46 µM; in assay [2], 4.59 µM; in assay [3] it was 3.13 µM; in assay [4] it was 5.14 µM; in assay [5], 3.55 µM; in assay [6], 6.54 µM. The GI50 was 4.35 µM in assay [7] and 3.59 µM in assay [8]. In addition, the TGI in assay [1] was determined as 13 µM; in assay [2] it was 31.8 µM; in assay [3], 14.7 µM; in assay [4] it was 31.7 µM; in assay [5], 15.8 µM; in assay [6] it was 31.4 µM. For the same molecule, the TGI amounted to 28.9 µM in assay [7] and 17.2 µM in assay [8].
On to `COc1cc2c3c(n(CCCN(CCN)CCCn4c5c(c6cc(OC)c(OC)cc6c4=O)C(=O)c4cc6c(cc4-5)OCO6)c(=O)c2cc1OC)-c1cc2c(cc1C3=O)OCO2`, for which the GI50 in assay [1] was 2.52 µM; in assay [2], 1.29 µM; in assay [3] it was 0.752 µM; in assay [4], 0.794 µM; in assay [5], 0.469 µM; in assay [6], 0.57 µM. The results for the GI50 in assay [7] and in assay [8] were 2.57 µM and 0.719 µM, respectively. The TGI in assay [1] was more than 37 µM; in assay [2], 15 µM; in assay [3], 18.3 µM; in assay [4], more than 29.3 µM; in assay [5] it was 13.6 µM; in assay [6], 6.32 µM. The values for the TGI in assay [7] and in assay [8] were more than 45.2 µM and more than 70.7 µM, respectively.

The values are drawn from PubChem BioAssay (NCI).
